Results reported in US20160228452A1, “TREATMENT OF METABOLIC DISEASES BY INHIBTION OF HTR2A OR HTR3” (Korea Advanced Institute of Science and Technology, priority 2014, published 2016).

Key:
[1] = Glucose tolerance test and insulin tolerance test; assay type: in vivo, mice; details: LP-533401 30 mg/kg orally, 10 weeks, HFD-fed mice vs HFD-fed control
Description: For the glucose tolerance tests, the mice were administered 2 g/kg D-glucose in PBS after overnight fasting. For the insulin tolerance tests, the mice were intraperitoneally injected with insulin (0.75 U/kg) after being fasted for 4 h. The blood glucose levels in blood samples obtained from tail veins 0, 15, 30, 45, 60, 90 and 120 min after injection were measured using a Gluco DR Plus glucometer (Allmedicus).

[2] = reference 18; cited from earlier work
[3] = High-fat-diet-induced obesity in mice: growth curves, body weight and eWAT mass; assay type: in vivo; details: LP-533401 30 mg/kg orally daily, 10 weeks, SCD or HFD
Description: The generation of Tph^flox/flox mice, Adipoq-cre mice, and aP2-CreERT2 mice has previously been reported^17,30,31. C57BL/6J mice, Htr3a-targeted KO mice (B6.129X1-Htr3a^tm1jul/J, Htr3a KO) and leptin-deficient ob/ob mice (B6.V-Lep^ob/J) were purchased from the Jackson Laboratory (Bar Harbor, Me., USA). To create the adipose tissue-specific Tph1 KO mice, Tph1^flox/flox mice were crossed with Adipoq-Cre mice (Tph1 FKO mice) and aP2-CreERT2 mice (Tph1 AFKO mice). The mice were housed in climate-controlled, specific pathogen-free (SPF) barrier facilities under a 12-h light-dark cycle, and chow and water were provided ad libitum. The Institutional Animal Care and Use Committee at the Korea Advanced Institute of Science and Technology approved the experimental protocols for this study. Htr3a KO mice and Tph1^flox/flox mice were backcrossed with C57BL/6J mice for more than 10 generations. Cre-recombination of 6-week-old Tph1 AFKO mice was induced by intraperitoneal (IP) injection of 5 doses of 2 mg of tamoxifen (Sigma) for 1 week. We fed male mice (aged 8˜10 weeks) either on SCD (standard chow diet; 12% fat calories, Purina Laboratory Rodent Diets 38057) or HFD (60% fat calories, Research Diets D12492). PBS or 300 mg/kg PCPA was administered as a daily intraperitoneal injection. LP-533401 was dissolved in PEG-400 and 5% dextrose (40:60 ratio). Vehicle or 30 mg/kg LP-533401 was administered daily with a feeding needle. We randomly divided C57BL/6J mice into 2-4 groups. For transgenic mice, we compared data between KO mice and their WT littermates. No blinding was done.

Htr3 [4] = biological target: T1, Htr3 (Mus musculus, UniProt P23979); test: Western blot for phosphorylation of PKA pathway components in IBAs; assay type: cell-based; details: IBAs, Htr3 agonist treatment
T1 construct: we explored the direct actions of Htr3 on BAT using immortalized brown adipocytes (IBAs); endogenous in cells; host or cells: differentiated immortalized brown adipocytes (IBAs)
T1 sequence (P23979 24-489): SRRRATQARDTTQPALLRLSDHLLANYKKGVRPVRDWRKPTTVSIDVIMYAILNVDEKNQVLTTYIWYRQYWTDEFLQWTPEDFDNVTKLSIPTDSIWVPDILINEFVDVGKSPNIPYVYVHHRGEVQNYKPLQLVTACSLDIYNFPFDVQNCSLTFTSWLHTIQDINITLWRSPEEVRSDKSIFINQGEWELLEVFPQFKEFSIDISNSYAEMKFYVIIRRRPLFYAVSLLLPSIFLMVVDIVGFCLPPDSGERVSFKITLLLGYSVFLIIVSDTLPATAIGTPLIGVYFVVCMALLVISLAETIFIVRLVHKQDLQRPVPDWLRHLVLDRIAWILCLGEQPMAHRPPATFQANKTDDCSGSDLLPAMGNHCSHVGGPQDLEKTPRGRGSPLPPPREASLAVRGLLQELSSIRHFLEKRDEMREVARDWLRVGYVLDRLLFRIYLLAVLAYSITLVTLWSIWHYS
T1 sequence (Q9JHJ5 22-437 partner): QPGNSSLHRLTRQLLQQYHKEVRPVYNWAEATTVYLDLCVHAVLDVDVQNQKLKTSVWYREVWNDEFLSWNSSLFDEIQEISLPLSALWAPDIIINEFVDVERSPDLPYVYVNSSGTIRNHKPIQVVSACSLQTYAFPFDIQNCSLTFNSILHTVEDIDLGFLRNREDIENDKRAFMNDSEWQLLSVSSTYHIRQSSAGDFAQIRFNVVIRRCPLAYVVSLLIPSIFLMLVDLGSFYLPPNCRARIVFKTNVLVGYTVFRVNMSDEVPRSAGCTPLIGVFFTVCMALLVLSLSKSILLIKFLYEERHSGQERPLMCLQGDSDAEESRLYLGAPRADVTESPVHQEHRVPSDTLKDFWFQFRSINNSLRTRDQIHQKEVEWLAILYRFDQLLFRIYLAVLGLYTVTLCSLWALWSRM
Description: (§1) IBAs were cultured in DMEM supplemented with 10% FBS and P/S in a humidified atmosphere of 5% CO2 at 37° C.^32. After reaching 95% confluence, the cells were induced to differentiate using DMEM with 10% FBS, 0.5 μg/mL insulin, 1 nM T3, 0.125 mM indomethacin, 2 μg/mL dexamethasone, 0.5 μM IBMX and P/S (day 0). After two days, the medium was replaced with DMEM supplemented with 10% FBS, 0.5 μg/mL insulin, 1 nM T3 and P/S (day 2), and it was changed every two days from days 4 to 8. We confirmed that these cell lines are free from Mycoplasma infection.
Whole-cell lysates were extracted by incubating cells in RIPA buffer (25 mM Tris-HCl pH 7.6, 150 mM NaCl, 1% NP-40, 1% sodium deoxycholate, 0.1% SDS) plus protease inhibitors (Roche). Supernatant was collected following a brief centrifuge, and protein concentrations in the supernatant were determined using the BCA Protein Assay Kit (Thermo Scientific, Rockford, Ill., USA). The cell lysates were then mixed with equal volumes of 2× Laemmli buffer (4% SDS, 20% glycerol, 10% 2-mercaptoethanol, 0.01% bromophenol blue, and 120 mM Tris-HCl, pH 6.8) and boiled for 5 min at 95° C. Then, the protein samples were separated by SDS-PAGE and transferred to a PVDF membrane (Millipore). […]

Htr3 [5] = biological target: T1, Htr3; test: cAMP assay (competitive ELISA) in immortalized brown adipocytes; assay type: cell-based; details: IBAs, 1 uM ondansetron or 100 nM m-CPBG, 15 min
Description: as §1
Differentiated IBAs were treated with 1 uM ondansetron or 100 nM m-CPBG or 1 uM CL-316243 for 15 min. 1 uM […] was used as a positive control. The cAMP competitive ELISA (Promega) was performed according to the manufacturer's instruction. Briefly, cAMP was extracted by adding 0.1 M HCl with 0.5% triton X-100 to the cells. After centrifugation at 600 g for 10 min, the supernatant was used for the determination of cAMP levels by competitive cAMP ELISA.

Htr3 [6] = biological target: T1, Htr3; test: Real-time PCR of thermogenic genes in IBAs; assay type: cell-based; details: 2 h after Htr3 agonist treatment
Description: as §1
Total RNA was extracted from the mouse tissues or cell lines using TRIzol reagent (Invitrogen) according to the manufacturer's protocol. After TURBO DNase (Invitrogen) treatment, 2 μg of total RNA was used to generate complementary DNA with Superscript III reverse transcriptase (Invitrogen). To analyze gene expression, real-time PCR was performed with a ViiA 7 Real-Time PCR system (Applied Biosystems) and the Power SYBR Green PCR master mix (Applied Biosystems). Relative quantification was based on the ddCt method, and ActB was used as an endogenous control (internal control).

| phosphorylation of HSL and PKA substrate (Htr3 [4]) | Ucp1 mRNA level (Htr3 [6]) | SMILES | glucose tolerance (IPGTT) [1] | crossing of the blood-brain barrier [2] | anti-obesity effects (growth curves) [3] | cAMP level in the absence of β3AR agonist (Htr3 [5]) |
| --- | --- | --- | --- | --- | --- | --- |
| – | – | Nc1nc(OC(c2ccc(-c3cccc(F)c3)cc2)C(F)(F)F)cc(-c2ccc(C[C@H](N)C(=O)O)cc2)n1 (stereo partly drawn) [LP-533401] | improved glucose tolerance | cannot cross the blood-brain barrier | also observed | – |
| decreased | decreased | N=C(N)NC(=N)Nc1cccc(Cl)c1 [m-CPBG, 1-(m-chlorophenyl)-biguanide] | – | – | – | did not affect cAMP levels |
